According to PubChem BioAssay (NCI):
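The compound was tested at five concentrations on cells cultured in 96-well plates, with a 48-hour exposure period. Here, GI50 denotes the concentration required for 50% inhibition of growth. Definition used: TGI = concentration required for complete inhibition of growth.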

What was measured:
Assay in all cases: NCI tumour cell line growth inhibition, 48 h
EKVX NSCLC = test system: EKVX NSCLC
MDA-MB-231 breast = test system: MDA-MB-231 breast
ACHN renal = test system: ACHN renal
CCRF-CEM leukemia = test system: CCRF-CEM leukemia
SK-MEL-28 melanoma = test system: SK-MEL-28 melanoma
NCI-H460 lung = test system: NCI-H460 lung
T-47D breast = test system: T-47D breast
HOP-92 NSCLC = test system: HOP-92 NSCLC
HCC-2998 colon = test system: HCC-2998 colon
A498 renal = test system: A498 renal
PC-3 prostate = test system: PC-3 prostate
OVCAR-3 ovarian = test system: OVCAR-3 ovarian
SNB-19 CNS = test system: SNB-19 CNS
SF-295 CNS = test system: SF-295 CNS
DU-145 prostate = test system: DU-145 prostate
TK-10 renal = test system: TK-10 renal
NCI-H226 lung = test system: NCI-H226 lung
MOLT-4 leukemia = test system: MOLT-4 leukemia
KM12 colon = test system: KM12 colon
OVCAR-8 ovarian = test system: OVCAR-8 ovarian
HCT-116 colon = test system: HCT-116 colon
A549 NSCLC = test system: A549 NSCLC
RXF 393 renal = test system: RXF 393 renal
NCI-H522 lung = test system: NCI-H522 lung
HCT-15 colon = test system: HCT-15 colon
SK-MEL-2 melanoma = test system: SK-MEL-2 melanoma
HL-60(TB) leukemia = test system: HL-60(TB) leukemia
MDA-MB-435 = test system: MDA-MB-435
SF-539 CNS = test system: SF-539 CNS
SNB-75 CNS = test system: SNB-75 CNS
UACC-62 melanoma = test system: UACC-62 melanoma
UO-31 renal = test system: UO-31 renal
OVCAR-4 ovarian = test system: OVCAR-4 ovarian
SR leukemia = test system: SR leukemia
UACC-257 melanoma = test system: UACC-257 melanoma
K-562 leukemia = test system: K-562 leukemia
SF-268 CNS = test system: SF-268 CNS
SK-OV-3 ovarian = test system: SK-OV-3 ovarian
RPMI-8226 leukemia = test system: RPMI-8226 leukemia
LOX IMVI melanoma = test system: LOX IMVI melanoma
OVCAR-5 ovarian = test system: OVCAR-5 ovarian
U251 CNS = test system: U251 CNS
MCF7 breast = test system: MCF7 breast
BT-549 breast = test system: BT-549 breast
NCI/ADR-RES ovarian = test system: NCI/ADR-RES ovarian
SN12C renal = test system: SN12C renal
HT29 colon = test system: HT29 colon
SW-620 colon = test system: SW-620 colon
CAKI-1 renal = test system: CAKI-1 renal
SK-MEL-5 melanoma = test system: SK-MEL-5 melanoma
MALME-3M melanoma = test system: MALME-3M melanoma
786-0 renal = test system: 786-0 renal
IGROV1 ovarian = test system: IGROV1 ovarian
COLO 205 colon = test system: COLO 205 colon
M14 melanoma = test system: M14 melanoma
HOP-62 NSCLC = test system: HOP-62 NSCLC
HS 578T breast = test system: HS 578T breast
NCI-H23 lung = test system: NCI-H23 lung

## C#C[C@]1(O)CC[C@H]2[C@@H]3CC=C4c5sc(-c6ccc(F)cn6)nc5CC[C@]4(C)[C@H]3CC[C@@]21C
EKVX NSCLC
  GI50: 2890 nM
  TGI: 12900 nM
MDA-MB-231 breast
  GI50: 2400 nM
  TGI: 7140 nM
ACHN renal
  GI50: 3430 nM
  TGI: 14000 nM
CCRF-CEM leukemia
  GI50: 2710 nM
  TGI: 33500 nM
SK-MEL-28 melanoma
  GI50: 1640 nM
  TGI: 3880 nM
NCI-H460 lung
  GI50: 3030 nM
  TGI: 12500 nM
T-47D breast
  GI50: 3430 nM
  TGI: 16100 nM
HOP-92 NSCLC
  GI50: 2020 nM
  TGI: 6830 nM
HCC-2998 colon
  GI50: 5160 nM
  TGI: 17800 nM
A498 renal
  GI50: 2050 nM
  TGI: 4060 nM
PC-3 prostate
  GI50: 1730 nM
  TGI: 7640 nM
OVCAR-3 ovarian
  GI50: 3860 nM
  TGI: 72400 nM
SNB-19 CNS
  GI50: 2720 nM
  TGI: 12700 nM
SF-295 CNS
  GI50: 1240 nM
  TGI: 2960 nM
DU-145 prostate
  GI50: 4620 nM
  TGI: 18900 nM
TK-10 renal
  GI50: 5310 nM
  TGI: 17300 nM
NCI-H226 lung
  GI50: 2930 nM
  TGI: 13100 nM
MOLT-4 leukemia
  GI50: 2010 nM
  TGI: 8060 nM
KM12 colon
  GI50: 3260 nM
  TGI: 20800 nM
OVCAR-8 ovarian
  GI50: 3160 nM
  TGI: 14300 nM
HCT-116 colon
  GI50: 1800 nM
  TGI: 4300 nM
A549 NSCLC
  GI50: 3440 nM
  TGI: 15100 nM
RXF 393 renal
  GI50: 309 nM
  TGI: 956 nM
NCI-H522 lung
  GI50: 2060 nM
  TGI: 5780 nM
HCT-15 colon
  GI50: 1890 nM
  TGI: 5110 nM
SK-MEL-2 melanoma
  GI50: 2330 nM
  TGI: 6580 nM
HL-60(TB) leukemia
  GI50: 2770 nM
  TGI: 10900 nM
MDA-MB-435
  GI50: 2280 nM
  TGI: 6840 nM
SF-539 CNS
  GI50: 1230 nM
  TGI: 2880 nM
SNB-75 CNS
  GI50: 2450 nM
  TGI: 15000 nM
UACC-62 melanoma
  GI50: 2650 nM
  TGI: 8530 nM
UO-31 renal
  GI50: 2320 nM
  TGI: 5620 nM
OVCAR-4 ovarian
  GI50: 4410 nM
  TGI: 18500 nM
SR leukemia
  GI50: 2210 nM
  TGI: 8390 nM
UACC-257 melanoma
  GI50: 2250 nM
  TGI: 6730 nM
K-562 leukemia
  GI50: 2490 nM
  TGI: > 100000 nM
SF-268 CNS
  GI50: 3460 nM
  TGI: 18400 nM
SK-OV-3 ovarian
  GI50: 2290 nM
  TGI: 5640 nM
RPMI-8226 leukemia
  GI50: 365 nM
  TGI: 1720 nM
LOX IMVI melanoma
  GI50: 1820 nM
  TGI: 3350 nM
OVCAR-5 ovarian
  GI50: 4010 nM
  TGI: 14800 nM
U251 CNS
  GI50: 1680 nM
  TGI: 7050 nM
MCF7 breast
  GI50: 1500 nM
  TGI: 3380 nM
BT-549 breast
  GI50: 1770 nM
  TGI: 5020 nM
NCI/ADR-RES ovarian
  GI50: 4120 nM
  TGI: 23600 nM
SN12C renal
  GI50: 4540 nM
  TGI: 17500 nM
HT29 colon
  GI50: 2020 nM
  TGI: 4600 nM
SW-620 colon
  GI50: 2620 nM
  TGI: 8010 nM
CAKI-1 renal
  GI50: 2120 nM
  TGI: 6270 nM
SK-MEL-5 melanoma
  GI50: 2620 nM
  TGI: 7230 nM
MALME-3M melanoma
  GI50: 3290 nM
  TGI: 11700 nM
786-0 renal
  GI50: 1360 nM
  TGI: 3330 nM
IGROV1 ovarian
  GI50: 4960 nM
  TGI: 20800 nM
COLO 205 colon
  GI50: 2620 nM
  TGI: 11100 nM
M14 melanoma
  GI50: 2770 nM
  TGI: 11700 nM
HOP-62 NSCLC
  GI50: 2280 nM
  TGI: 7250 nM
HS 578T breast
  GI50: 1450 nM
  TGI: 5260 nM

## Oc1ccccc1-c1nnc(SCc2ccc(O)c3ncccc23)n1-c1ccccc1
EKVX NSCLC
  GI50: 437 nM
  TGI: 9810 nM
MDA-MB-231 breast
  GI50: 432 nM
  TGI: 24200 nM
ACHN renal
  GI50: 331 nM
  TGI: 26300 nM
CCRF-CEM leukemia
  GI50: 379 nM
  TGI: > 100000 nM
SK-MEL-28 melanoma
  GI50: 543 nM
  TGI: > 100000 nM
NCI-H460 lung
  GI50: 372 nM
  TGI: > 100000 nM
T-47D breast
  GI50: 344 nM
  TGI: > 100000 nM
HOP-92 NSCLC
  GI50: 106 nM
  TGI: 654 nM
HCC-2998 colon
  GI50: 552 nM
  TGI: > 95200 nM
A498 renal
  GI50: 1850 nM
  TGI: 7440 nM
PC-3 prostate
  GI50: 488 nM
  TGI: > 100000 nM
SNB-19 CNS
  GI50: 378 nM
  TGI: > 100000 nM
SF-295 CNS
  GI50: 347 nM
  TGI: > 53800 nM
DU-145 prostate
  GI50: 498 nM
  TGI: > 90800 nM
TK-10 renal
  GI50: 417 nM
  TGI: > 100000 nM
NCI-H226 lung
  GI50: 1770 nM
  TGI: > 100000 nM
MOLT-4 leukemia
  GI50: 434 nM
  TGI: > 100000 nM
KM12 colon
  GI50: 485 nM
  TGI: > 75300 nM
OVCAR-8 ovarian
  GI50: 375 nM
  TGI: > 41500 nM
HCT-116 colon
  GI50: 325 nM
  TGI: > 100000 nM
A549 NSCLC
  GI50: 441 nM
  TGI: > 100000 nM
RXF 393 renal
  GI50: 666 nM
  TGI: 80200 nM
HCT-15 colon
  GI50: 323 nM
  TGI: > 100000 nM
SK-MEL-2 melanoma
  GI50: 361 nM
HL-60(TB) leukemia
  GI50: 326 nM
  TGI: 2380 nM
MDA-MB-435
  GI50: 402 nM
  TGI: > 100000 nM
SF-539 CNS
  GI50: 438 nM
  TGI: 13700 nM
SNB-75 CNS
  GI50: 416 nM
  TGI: > 58800 nM
UACC-62 melanoma
  GI50: 426 nM
  TGI: 2540 nM
UO-31 renal
  GI50: 291 nM
  TGI: 2480 nM
OVCAR-4 ovarian
  GI50: 641 nM
  TGI: > 100000 nM
SR leukemia
  GI50: 345 nM
  TGI: > 100000 nM
UACC-257 melanoma
  GI50: 514 nM
  TGI: > 26800 nM
K-562 leukemia
  GI50: 270 nM
  TGI: > 100000 nM
SF-268 CNS
  GI50: 475 nM
  TGI: > 100000 nM
SK-OV-3 ovarian
  GI50: 376 nM
  TGI: > 19700 nM
RPMI-8226 leukemia
  GI50: 399 nM
  TGI: > 100000 nM
LOX IMVI melanoma
  GI50: 350 nM
  TGI: > 35300 nM
OVCAR-5 ovarian
  GI50: 2110 nM
  TGI: > 100000 nM
U251 CNS
  GI50: 363 nM
  TGI: > 100000 nM
MCF7 breast
  GI50: 310 nM
  TGI: > 100000 nM
BT-549 breast
  GI50: 494 nM
  TGI: > 100000 nM
NCI/ADR-RES ovarian
  GI50: 279 nM
  TGI: > 100000 nM
SN12C renal
  GI50: 347 nM
  TGI: 52700 nM
HT29 colon
  GI50: 3620 nM
  TGI: > 51400 nM
SW-620 colon
  GI50: 429 nM
  TGI: > 100000 nM
CAKI-1 renal
  GI50: 382 nM
  TGI: 24600 nM
SK-MEL-5 melanoma
  GI50: 349 nM
  TGI: 1530 nM
MALME-3M melanoma
  GI50: 806 nM
  TGI: 7890 nM
786-0 renal
  GI50: 513 nM
  TGI: 12000 nM
IGROV1 ovarian
  GI50: 406 nM
  TGI: > 100000 nM
NCI-H23 lung
  GI50: 412 nM
  TGI: > 100000 nM
COLO 205 colon
  GI50: 4010 nM
  TGI: 32000 nM
M14 melanoma
  GI50: 418 nM
HOP-62 NSCLC
  GI50: 377 nM
  TGI: > 21000 nM
HS 578T breast
  GI50: 357 nM
  TGI: > 100000 nM
